“Also recorded” adds a separate entry of the source.
Legend:
[1] = QikProp calculation of clogP and membrane permeability (Caco-2, MDCK models); details: predicted permeability models; fold
Description: In order to identify chemically distinct inhibitors of FTO, we used a combination of structure-based drug design and molecular docking with the Schrödinger software suite to target the MA binding site of FTO. […] Interactions with these four residues were considered highly favorable. […] Docking poses for FTO-1-20 are in the supporting information (FIGS. 32-51). Hits showing promising docking scores (absolute value ≥7) were also analyzed by QikProp to assess their physicochemical properties. As existing FTO inhibitors fail to progress to clinical applications due to poor pharmacokinetic profiles, it was important to filter our screen for compounds with more favorable physicochemical properties. […] These criteria were selected due to multiple studies indicating compounds with low molecular weight and moderate lipophilicity are more likely to show favorable adsorption and clearance rates, and less toxicity due to target promiscuity. As such, controlling the physicochemical properties of inhibitors during the initial screening stages should select for better leads for future optimization and development. Based on these criteria, the top 20 inhibitors were selected for synthesis (Table S1). These parameters were also calculated for MA, FB23-2 and its precursor FB23 (Table S2). […]

[2] = target: T1, FTO (Homo sapiens, UniProt Q9C0B1); details: reported (ref. 36); stated as selectivity against ALKBH5; cited from earlier work
T1 construct: SUMO (N); His10 (N); made in house; host or cells: E. coli BL21

[3] = system: MONOMAC6 and NB4 cells; details: fold, Huang et. al; cited from earlier work
[4] = target: T1, FTO; assay: Fluorescence enzymatic inhibition assay (m6A7-Broccoli / DFHBI-1T), FTO; assay type: biochemical; details: fold more potent than MA (IC50=12.5)
Description: In order to determine their efficacy as FTO inhibitors, the compounds were screened by a fluorescence enzymatic inhibition assay developed previously by the Jaffrey lab.^44 Briefly, a nonfluorescent methylated RNA substrate termed “m6A7-Broccoli” is incubated with FTO in the presence of 2-oxoglutarate (300 μM), (NH4)2Fe(SO4)2·6H2O (300 μM), and L-ascorbate (2 mM) for 2 hours at room temperature in reaction buffer (50 mM NaHEPES, pH 6).
E. coli BL21 competent cells (New England Biolabs) were transformed with pET28-SUMO-His10-FTO plasmid (a generous gift from the Jaffrey lab) by heat shock and spread on a LB Kanamycin agar plate, then incubated overnight at 37° C. 2-3 colonies were picked and transferred to 5 mL of LB media treated with kanamycin (0.5 mg mL^−1 final concentration), then grown overnight shaking at 37° C. The overnight culture was then transferred to 2 L of LB kanamycin media and incubated at 37° C. until OD 0.8. The culture was cooled at 4° C. for 20 mins and induced with 0.5 mM isopropyl β-D-1-thiogalactopyranoside (IPTG), then grown shaken at 16° C. Cell pellets were collected by centrifugation (5,000 g for 10 min at 4° C.) and the supernatant was discarded. The pellets were resuspended in B-PER Bacterial Protein Extraction Reagent (6 mL per gram) with DNase 1 (5 U per mL, RNase-free) and incubated at 4° C. for 1 hour. The suspension was centrifuged at 10,000 g for 20 min and the supernatant was transferred to a Talon Metal Affinity Resin column that had been pre-equilibrized with binding buffer (50 mM NaH2PO4 pH 7.2, 300 mM NaCl, 20 mM imidazole, 1 mM β-mercaptoethanol in RNase-free water). […] The eluant was combined and transferred to a Slyde-A-Lyzer Dialysis Cassette (20,000 MWCO, Thermo Scientific) and dialyzed overnight at 4° C. against dialysis buffer (50 mM Tris-HCl pH 7.4, 100 mM NaCl, 5 mM B-mercaptoethanol, 5% (v/v) glycerol in RNase-free water). […] ALKBH5 was expressed and purified from pET28-SUMO-His10-ALKBH5 plasmid by the same procedure described above.
Inhibitors were added in concentrations ranging from 0.008-40 μM; all inhibitors were dissolved in DMSO and added to a final concentration of 0.2% DMSO. […] After incubation at room temperature for 2 hours, the plates were left at 4° C. overnight (16 hours) to allow DFHBI-1T to bind to A7-Broccoli RNA. […] Sigmoidal dose-response curves were fitted in GraphPad Prism 6. All assays were performed in triplicate, with additional repetitions added as necessary.

[5] = target: T1, FTO; assay: Steady-state (Michaelis-Menten) inhibition kinetics, FTO; assay type: biochemical; details: velocity and double-reciprocal plots; 0-40 μM inhibitor, 0-10 μM substrate; listed as FTO-04
[6] = system: TS576 glioblastoma stem cells; assay: Tumorosphere (neurosphere) formation assay, TS576; assay type: cell-based, human; details: 2 days
Description: (§1) To understand the effects of our FTO inhibitors on the self-renewal properties of GSCs, tumorospheres cultured from the patient-derived GSC line TS576 were treated with 30 μM of FTO-04, FTO-10, FTO-11, or FTO-12 (FIG. 29A-29B; cell line gifted from the Furnari lab).^45, 46 The GSCs were cultured in sphere-forming assays for 24 hours, then treated with either inhibitors or DMSO control for 2 days. The size of the tumorospheres was calculated using ImageJ.
(§2) Early passaged GSCs were used to understand the efficacy of ALK-04 on the self-renewal capacity of GSCs by tumorsphere-formation assay as described earlier^10, 11. In brief, GSCs were seeded at 4×10^4 cells in 24 well plate and cultured for 3 days followed by treatment with ALK-04 inhibitors at 20 μM daily for 3 days. After 3 days of treatment the images of the tumorospheres were imaged with phase contrast microscope and size was measured with Image J, to understand the effects of drugs on the self-renewal of GSCs on sphere formation. This process was also repeated for healthy neural stem cells (hNSCs) treated daily with 20 μM ALK-04 for three days to assess the therapeutic ratio.

[7] = system: GBM-GSC-23; assay: Tumorosphere (neurosphere) formation assay, GBM-GSC-23; assay type: cell-based, human; details: 20 μM, 2 days, listed as FTO-04
[8] = system: GBM-6; assay: Tumorosphere (neurosphere) formation assay, GBM-6; assay type: cell-based, human; details: GBM-6, 20 μM, 2 days; listed as FTO-04
[9] = system: human neural stem cells (hNSC); assay: Neurosphere formation assay, healthy neural stem cells; assay type: cell-based; details: healthy neural stem cells (hNSCs), 20 μM; listed as FTO-04
Description: as §1, §2

[10] = system: m6A mRNA levels in TS576 cells; assay: m6A dot blot assay on poly(A)+ mRNA; assay type: cell-based, human; details: vs DMSO control, does not distinguish m6A and m6Am
Description: Next, we sought to determine if FTO-04 was able to alter m6A levels in purified mRNA from GSCs by m6A dot blot assay. TS576 cells were treated with 2, 10, and 50 ng shControl or shFTO to establish the relative change in m6A mRNA levels due to FTO knockdown. […] TS576 cells were then treated with 2, 10, and 50 ng of either DMSO or FTO-04 (FIG. 59B).
Polyadenylated mRNA were isolated from TS576 cells treated with either DMSO, FTO-04 (30 μM), and control (shControl) or FTO lentivirus (shFTO) knockdown samples by using Magnetic mRNA Isolation Kit (New England Biolabs, S1550S). Isolated mRNA was quantified, serially diluted and denatured at 95° C. for 3 min, then chilled on ice to prevent reformation of secondary structure of mRNA. Denatured mRNA samples were spotted on an Amersham Hybond-N^+ membrane (GE Healthcare, RPN3050B) and cross-linked to the membrane with UV radiation. After crosslinking the membrane was washed with phosphate buffer saline with 0.1% tween-20 (PBST) and blocked in 5% of non-fat milk in PBST buffer, and then incubated with anti-m^6A antibody (1:1000; abcam) overnight at 4° C. The membrane was then washed as before and incubated in HRP-conjugated secondary antibodies for 1 h at room temperature. The membrane was then developed with Thermo ECL SuperSignal West Femto Maximum Sensitivity Substrate (Thermo Fisher Scientific).

T1 sequence (Q9C0B1 whole entry): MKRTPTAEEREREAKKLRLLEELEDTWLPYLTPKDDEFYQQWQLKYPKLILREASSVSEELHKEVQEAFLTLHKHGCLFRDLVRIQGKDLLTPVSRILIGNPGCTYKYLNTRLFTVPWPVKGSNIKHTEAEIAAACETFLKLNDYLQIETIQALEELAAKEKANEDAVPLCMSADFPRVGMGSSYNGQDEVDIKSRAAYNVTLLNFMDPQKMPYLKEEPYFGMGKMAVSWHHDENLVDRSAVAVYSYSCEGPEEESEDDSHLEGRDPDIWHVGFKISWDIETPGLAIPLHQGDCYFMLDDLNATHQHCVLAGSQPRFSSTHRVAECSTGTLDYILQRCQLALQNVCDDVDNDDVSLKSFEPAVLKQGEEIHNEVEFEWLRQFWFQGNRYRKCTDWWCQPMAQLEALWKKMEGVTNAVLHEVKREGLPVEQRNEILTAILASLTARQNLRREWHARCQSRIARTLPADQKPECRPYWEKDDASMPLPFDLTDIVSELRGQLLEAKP

estimated rate of passive diffusion relative to FB23 [1] | potency against FTO relative to MA [4] | SMILES | inhibition of FTO at 50 μM [2] | cellular concentration relative to FB23 [3] | mechanism of inhibition of FTO [5] | size of tumorospheres ([6]; TS576, 20 μM, listed as FTO-04) | size of tumorospheres ([6]; TS576, 30 μM, vs vehicle control) | size of tumorospheres [7] | size of tumorospheres [8] | neurosphere size [9] | m6A mRNA levels [10]
~2.5 | – | Cc1noc(C)c1-c1cc(Cl)c(Nc2ccccc2C(=O)NO)c(Cl)c1 [FB23-2] | little to no inhibition | 3-10 | – | – | – | – | – | – | –
– | approximately 4 | COc1ncc(-c2ccc3nc(N)sc3c2)cn1 [FTO-4, 6-(2-methoxypyrimidin-5-yl)benzo[d]thiazol-2-amine] | – | – | competitive inhibitor; also recorded: competitive mechanism of inhibition | inhibits GSC neurospheres formation; also recorded: significantly decrease the size of tumorospheres | significant reduction in size of the tumorospheres | inhibits GSC neurospheres formation; also recorded: significantly decrease the size of tumorospheres | inhibits GSC neurospheres formation; also recorded: significantly decrease the size of tumorospheres | without impairing hNSC neurosphere growth; also recorded: no alteration in neurosphere size | increase m6A mRNA levels significantly compared to DMSO control
